Experimental findings from patent US7105312B2, “Ca2+/calmodulin-dependent protein kinase IV” (Duke University, priority 2001, dated 2006) are described below.

Structures are written as SMILES.

For one assay, the system named is p38. Nature of the assay: p38 activation in neutrophils in response to fMLP or TPA. The class given is cell-based, mice or humans. To be noted: in response to either fMLP or TPA. On the procedure:
(§1) In isolated peripheral neutrophils from normal mice or humans, the responses of neutrophils to stimulation by the chemotactic peptide, fMLP, or by the phorbol ester, PMA, was evaluated. […] It was known that the […], p38, is required for the respiratory burst that follows neutrophil activation. […] BM neutrophils have been isolated from normal and Camk4−/− mice and p38 activation in response to PMA has been evaluated.

For assay [1], the system named is isolated peripheral neutrophils. The assay is described as follows: Neutrophil respiratory burst and hydrogen peroxide production after stimulation by fMLP or PMA. The settings on record: isolated peripheral neutrophils from normal mice or humans. The assay is classed as cell-based. On the procedure:
as §1

As to `COc1ccc(S(=O)(=O)N(CCO)c2ccccc2CN(C)C/C=C/c2ccc(Cl)cc2)cc1` [KN-93], the p38 activation result in the assay on p38 is “prevented”. Moreover, in assay [1], the hydrogen peroxide production entry is “completely inhibited” and the respiratory burst result was “completely inhibited”.
